Experimental data as given in ChEMBL document CHEMBL1150809, “New acyclic sesquiterpenes and norsesquiterpenes from the Caribbean Gorgonian Plexaurella grisea” (J Nat Prod, 2001).
Values after ≈ are worked out from the molar mass of the structure shown.

How the values were obtained:
Assay type in all cases: functional, cell-based
P388 = test: Cytotoxicity against mouse P388 cells
A549 = test: Cytotoxicity against human A549 cells
HT-29 = test: Cytotoxicity against human HT-29 cells
SK-MEL-28 = test: Cytotoxicity against human SK-MEL-28 cells

Row | Structure (SMILES) | IC50 (P388) [µg/mL] | IC50 (A549) [µg/mL] | IC50 (HT-29) [µg/mL] | IC50 (SK-MEL-28) [µg/mL]
1 | C=C/C(C)=C/CC(OC(C)=O)C(=C)CCC=C(C)C (stereo not given) | 2.5 (≈ 9.53 µM) | 5 (≈ 19.1 µM) | 5 (≈ 19.1 µM) | 5 (≈ 19.1 µM)
2 | CC(C)=C/C=C\C(C)/C=C/C=C(\C)C=O (stereo not given) | > 10 | > 10 | > 10 | > 10
3 | CC(C)=CCCC(C)/C=C/C=C(\C)C=O (stereo not given) | 0.5 (≈ 2.42 µM) | 2.5 (≈ 12.1 µM) | 2.5 (≈ 12.1 µM) | 2.5 (≈ 12.1 µM)
4 | C=C/C(C)=C/C=C/C(C)CC(=O)CC(C)C (stereo not given) | 2.5 (≈ 11.3 µM) | 5 (≈ 22.7 µM) | 5 (≈ 22.7 µM) | 5 (≈ 22.7 µM)
5 | C=C/C(C)=C\C=C\C(C)CC(=O)CC(C)C (stereo not given) | 2.5 (≈ 11.3 µM) | 2.5 (≈ 11.3 µM) | 2.5 (≈ 11.3 µM) | 2.5 (≈ 11.3 µM)
